From patent publication US8822444B2, “Hepatitis C virus inhibitors” (Bristol-Myers Squibb Company, priority 2009, dated 2014) come the findings set out here.

Molecules are shown by their SMILES.

This assay relates to HCV 1b genotype. In words: HCV Replicon assay. The assay is classed as cell-based. The settings on record: HCV 1b genotype replicon; read-out: 1b EC50 Range. On the procedure:
An HCV Replicon assay was utilized in the present disclosure, and was prepared, conducted and validated as described in commonly owned PCT/US2006/022197 and in O'Boyle et. al. Antimicrob Agents Chemother. 2005 April; 49(4):1346-53. Assay methods incorporating luciferase reporters have also been used as described (Apath.com).
HCV-neo replicon cells and replicon cells containing mutations in the NS5A region were used to test the currently described family of compounds. The compounds were determined to have more than 10-fold less inhibitory activity on cells containing mutations than wild-type cells. Thus, the compounds of the present disclosure can be effective in inhibiting the function of the HCV NS5A protein and are understood to be as effective in combinations as previously described in application PCT/US2006/022197 and commonly owned WO/04014852. Further, the compounds of the present disclosure can be effective against the HCV 1b genotype. It should also be understood that the compounds of the present disclosure can inhibit multiple genotypes of HCV. […] In one embodiment, compounds of the present disclosure are inhibitory versus 1a, 1b, 2a, 2b, 3a, 4a, and 5a genotypes.

With `COC(=O)N[C@H](C(=O)N1CCC[C@H]1c1nc(-c2ccc(C3CCC(c4c[nH]c([C@@H]5CCCN5C(=O)[C@@H](NC(=O)OC)C(C)C)n4)CC3)cc2)c[nH]1)C(C)C` (stereo partly drawn) [QC-17, methyl ((1S)-1-(((2S)-2-(4-(4-(4-(2-((2S)-1-((2S)-2-((methoxycarbonyl)amino)-3-methylbutanoyl)pyrrolidin-2-yl)-1H-imidazol-4-yl)phenyl)cyclohexyl)-1H-imidazol-2-yl)pyrrolidin-1-yl)carbonyl)-2-methylpropyl)carbamate], the EC50 fell in the range of 2 to 4.57 nM.
